Test results: patent US10626115B2, “Fused pyrimidinone and triazinone derivatives containing bridged nitrogen, their process of preparation and their therapeutic uses as antifungal and/or antiparasitic agents” (UNIVERSITE DE NANTES, priority 2015, dated 2020)
≈ marks a conversion by molar mass, not a printed value. Read-outs that look alike come from different tables or passages of the source.

Legend:
[1] = test system: fluconazole-susceptible C. albicans strain: CAAL93; test: Antifungal susceptibility, spectrofluorimetric microdilution, CAAL93; type: cell-based; conditions: Candida albicans, read-out: MIC values CAAL93
Procedure: (§1) Eight strains of Candida spp. with various azoles-susceptibilities were used: • One fluconazole-susceptible C. albicans strain: CAAL93 • Two fluconazole-resistant C. albicans strains: CAAL111 (efflux pump) and CAAL117 (erg11 mutations+voriconazole-resistant) • five fluconazole-resistant Candida non albicans strains: C. krusei (CAKR7, CAKR8), C. glabrata (CAGL2), C. parapsilosis s.l. (CAPA1, CAPA2).
(§2) Antifungal susceptibility was evaluated with a spectrofluorimetric microdilution method.

[2] = test system: fluconazole-resistant C. albicans strain CAAL111 (efflux pump); test: microbe, parasite or virus in culture; type: cell-based; conditions: Candida albicans, read-out: MIC values CAAL111
Procedure: as §1, §2

[3] = test system: fluconazole-resistant C. albicans strain CAAL117 (erg11 mutations+voriconazole-resistant); test: microbe, parasite or virus in culture; type: cell-based; conditions: Candida albicans, read-out: MIC values CAAL117
Procedure: as §1, §2

[4] = test system: fluconazole-resistant C. glabrata (CAGL2); test: microbe, parasite or virus in culture; type: cell-based; conditions: Nakaseomyces glabratus, read-out: MIC values CAGL2
Procedure: as §1, §2

[5] = test system: fluconazole-resistant C. krusei (CAKR7); test: microbe, parasite or virus in culture; type: cell-based; conditions: Pichia kudriavzevii, read-out: MIC values CAKR7
Procedure: as §1, §2

[6] = test system: fluconazole-resistant C. krusei (CAKR8); test: microbe, parasite or virus in culture; type: cell-based; conditions: Pichia kudriavzevii, read-out: MIC values CAKR8
Procedure: as §1, §2

[7] = test system: A. fumigatus susceptible strain ASFU76; test: Antifungal susceptibility, spectrofluorimetric microdilution, ASFU76; type: cell-based, Aspergillus fumigatus; conditions: Aspergillus fumigatus, read-out: MIC values ASFU76
Procedure: (§3) Eleven strains of A. fumigatus with various itraconazole susceptibility were used: • Five susceptible strains: ASFU7, ASFU35A, ASFU38A, ASFU76 and ASFU78. • Six itraconazole-resistant strains: ASFU77 (erg11 mutation), ASFU13, ASFU17, ASFU19, ASFU20, ASFU23.
(§4) Antifungal susceptibility was evaluated with a spectrofluorimetric microdilution method. MIC was the concentration that was able to inhibit 80% of fluorescence measured in the control wells.

[8] = test system: A. fumigatus susceptible strain ASFU35A; test: Antifungal susceptibility, spectrofluorimetric microdilution, ASFU35A; type: cell-based, Aspergillus fumigatus; conditions: Aspergillus fumigatus, read-out: MIC values ASFU35A
Procedure: as §3, §4

[9] = test system: A. fumigatus susceptible strain ASFU38A; test: Antifungal susceptibility, spectrofluorimetric microdilution, ASFU38A; type: cell-based, Aspergillus fumigatus; conditions: Aspergillus fumigatus, read-out: MIC values ASFU38A
Procedure: as §3, §4

[10] = test system: A. fumigatus susceptible strain ASFU7; test: Antifungal susceptibility, spectrofluorimetric microdilution, ASFU7; type: cell-based, Aspergillus fumigatus; conditions: Aspergillus fumigatus, read-out: MIC values ASFU7
Procedure: as §3, §4

[11] = test system: A. fumigatus susceptible strain ASFU78; test: Antifungal susceptibility, spectrofluorimetric microdilution, ASFU78; type: cell-based, Aspergillus fumigatus; conditions: Aspergillus fumigatus, read-out: MIC values ASFU78
Procedure: as §3, §4

[12] = test system: A. fumigatus itraconazole-resistant strain ASFU13; test: Antifungal susceptibility, spectrofluorimetric microdilution, ASFU13; type: cell-based, Aspergillus fumigatus; conditions: Aspergillus fumigatus, read-out: MIC values ASFU13
Procedure: as §3, §4

[13] = test system: A. fumigatus itraconazole-resistant strain ASFU17; test: Antifungal susceptibility, spectrofluorimetric microdilution, ASFU17; type: cell-based, Aspergillus fumigatus; conditions: Aspergillus fumigatus, read-out: MIC values ASFU17
Procedure: as §3, §4

[14] = test system: A. fumigatus itraconazole-resistant strain ASFU19; test: Antifungal susceptibility, spectrofluorimetric microdilution, ASFU19; type: cell-based, Aspergillus fumigatus; conditions: Aspergillus fumigatus, read-out: MIC values ASFU19
Procedure: as §3, §4

[15] = test system: A. fumigatus itraconazole-resistant strain ASFU77 (erg11 mutation); test: Antifungal susceptibility, spectrofluorimetric microdilution, ASFU77; type: cell-based, Aspergillus fumigatus; conditions: Aspergillus fumigatus, read-out: MIC values ASFU77
Procedure: as §3, §4

[16] = test system: A. fumigatus itraconazole-resistant strain ASFU20; test: Antifungal susceptibility, spectrofluorimetric microdilution, ASFU20; type: cell-based, Aspergillus fumigatus; conditions: Aspergillus fumigatus, read-out: MIC values ASFU20
Procedure: as §3, §4

[17] = test system: A. fumigatus itraconazole-resistant strain ASFU23; test: Antifungal susceptibility, spectrofluorimetric microdilution, ASFU23; type: cell-based, Aspergillus fumigatus; conditions: Aspergillus fumigatus, read-out: MIC values ASFU23
Procedure: as §3, §4

[18] = test system: fluconazole-resistant C. parapsilosis s.l. (CAPA1); test: microbe, parasite or virus in culture; type: cell-based; conditions: Lodderomyces parapsilosis, read-out: MIC values CAPA1
Procedure: as §1, §2

[19] = test system: fluconazole-resistant C. parapsilosis s.l. (CAPA2); test: microbe, parasite or virus in culture; type: cell-based; conditions: Lodderomyces parapsilosis, read-out: MIC values CAPA2
Procedure: as §1, §2

[20] = Cytotoxicity on HeLa cells; type: cell-based, Human; conditions: human, 50% inhibition of control fluorescence
Procedure: Hela Human cell line was used in view to evaluate cytotoxicity. It was evaluated with a spectrofluorimetric microdilution method. IC50 was the concentration that was able to inhibit 50% of fluorescence measured in the control wells.

[21] = test system: Candida albicans strain (CAAL93); test: Murine systemic candidiasis; type: in vivo; conditions: neutropenic Swiss mice, CAAL93 i.v., 10 mg/kg per os once a day for 5 days
Procedure: Transiently neutropenic female Swiss mice were used for experiments on systemic candidiasis and invasive aspergillosis.
Mice were inoculated intravenously with a Candida albicans strain (CAAL93). Treatment was administrated once a day (10 mg/kg per os) for 5 days. […] Fungal burden of the kidney was evaluated in dead animals during the experimentation or in animals sacrificed at the end of the experimentation.

[22] = test system: promastigote stage of a Leishmania mexicana strain; test: Anti-Trypanosomatidae activity, promastigote stage, spectrofluorimetric microdilution; type: cell-based
Procedure: Compounds were evaluated on the promastigote stage of a Leishmania mexicana strain using a spectrofluorimetric microdilution method. Inhibitory concentration 50 (IC50) was the concentration that inhibited 50% of the control growth.

Row | SMILES | MIC [1] [µg/mL] | MIC [2] [µg/mL] | MIC [3] [µg/mL] | MIC [4] [µg/mL] | MIC [5] [µg/mL] | MIC [6] [µg/mL] | MIC [7] [µg/mL] | MIC [8] [µg/mL] | MIC [9] [µg/mL] | MIC [10] [µg/mL] | MIC [11] [µg/mL] | MIC [15] [µg/mL] | MIC [18] [µg/mL] | MIC [19] [µg/mL] | also measured
1 | C[C@@H](n1ncc2cccn2c1=O)[C@](O)(Cn1cncn1)c1ccc(F)cc1F [Compound 44, 3-[(1R,2R)-2-(2,4-Difluorophenyl)-2-hydroxy-1-methyl-3-(1,2,4-triazol-1-yl)propyl]-3H-pyrrolo[1,2-d][1,2,4]triazin-4-one] | < 0.001 | 0.48 ± 0.199 (≈ 1.24 µM) | 0.79 ± 0.092 (≈ 2.04 µM) | 0.099 ± 0.004 (≈ 0.256 µM) | 0.625 ± 0.057 (≈ 1.62 µM) | 1.15 (≈ 2.98 µM) | 18.1 ± 10.1 (≈ 46.9 µM) | 21.4 ± 10.1 (≈ 55.3 µM) | 55.1 ± 9.96 (≈ 143 µM) | 24.3 ± 9.57 (≈ 62.9 µM) | 19.7 ± 12.9 (≈ 51 µM) | 52.8 ± 4.54 (≈ 137 µM) |  |  | MIC [12]: 4.06 µg/mL (≈ 10.5 µM); MIC [13]: > 38 µg/mL; MIC [14]: > 38 µg/mL; MIC [16]: 8.04 µg/mL (≈ 20.8 µM); MIC [17]: 9.54 µg/mL (≈ 24.7 µM); melting point: 131 to 132 °C
2 | C[C@@H](n1ccc2nc(-c3ccccc3)cn2c1=O)[C@](O)(Cn1cncn1)c1ccc(F)cc1F [Compound 29, 6-[(1R,2R)-2-(2,4-Difluorophenyl)-2-hydroxy-1-methyl-3-(1H-1,2,4-triazol-1-yl)propyl]-2-phenylimidazo[1,2-c]pyrimidin-5-one] | < 0.001 | 0.005 ± 0.002 (≈ 0.0108 µM) |  | 0.15 ± 0.01 (≈ 0.324 µM) | 1.28 ± 0.33 (≈ 2.77 µM) | 0.07 ± 0.02 (≈ 0.151 µM) | 6.66 ± 0.53 (≈ 14.4 µM) | 6.36 ± 1.42 (≈ 13.8 µM) | 6.86 ± 1 (≈ 14.8 µM) | 2.49 ± 0.13 (≈ 5.38 µM) | 5.93 ± 0.72 (≈ 12.8 µM) | 28.2 ± 21.9 (≈ 61 µM) | 0.009 ± 0.003 (≈ 0.0195 µM) | 0.007 ± 0.004 (≈ 0.0151 µM) | IC50 [20]: 25 µM; survival compared with the non-treated group ([21]; 28 days (compound 51, 14 days), p<0.05): significant longer survival; activity on fungal burden of the kidney compared to FLC ([21]; p<0.05): significantly higher when compared to FLC; fungal burden of the kidney ([21]; p<0.05 (compound 51 p<0.001)): significantly decreased; effectiveness against the promastigote stage of L. Mexicana, in words [22]: effective; IC50 ([22]; Leishmania mexicana, promastigote stage, 50% of control growth, read-out: L. mexicana (IC50 μM)): 2.8 ± 0.3 µM
3 | OC(Cn1cncn1)(Cn1cncn1)c1ccc(F)cc1F [FLC, fluconazole, reference compound] |  | > 30 | > 3 | 10.1 ± 0.61 (≈ 33 µM) | > 3 | > 10 |  |  |  |  |  |  | > 30 | > 30 | MIC ([1]; concentration inhibiting 50% of control fluorescence): 0.036 ± 0.02 µg/mL (≈ 0.118 µM)
